Data: US20230023092A1, “TREATMENT OF DEPRESSION AND OTHER VARIOUS DISORDERS WITH PSILOCYBIN” (COMPASS […], priority 2019, published 2023)
Values after ≈ are worked out from the molar mass of the structure shown.

Legend:
healthy subjects [1] = experiment: Scale of Social Responsibility (SSR); type: in vivo, human
Description: In some embodiments, the Scale of Social Responsibility (SSR) is utilized to evaluate the safety and/or efficacy of psilocybin. The SSR measures perceptions regarding the importance of ethics and social responsibility.
The Pictorial Empathy Test (PET), Reading the Mind in the Eyes Test (RMET), Scale of Social Responsibility (SSR), Social Value Orientation (SVO), and Toronto Empathy Questionnaire (TEQ) were performed. Table 20 summarizes the results of the mixed model for repeated measures (MMRM) analysis for each of the aforementioned social cognition panel scales measured on Day 7 and Day 84 after study drug administration.

[2] = Solubility and hygroscopicity of psilocybin (Polymorph A or A′); type: physicochemical; conditions: in Water; form Polymorph A or A′
From the text: In some embodiments, the psilocybin of the disclosure in the form Polymorph A or A′ has the general properties illustrated in Table D.

healthy subjects [3] = experiment: Symptom Checklist-90 Item (SCL-90); type: in vivo, human
From the text: In some embodiments, the Symptom Checklist-90 item (SCL-90) questionnaire is used to evaluate the safety and/or efficacy of psilocybin. The SCL-90 is a relatively brief self-report psychometric instrument designed to evaluate a broad range of psychological problems and symptoms of psychopathology. In some embodiments, the SCL-90 is used to assess somatization, obsessive-compulsive behaviors, interpersonal sensitivity, depression, anxiety, hostility, phobic anxiety, paranoid ideation, and psychoticism of a subject treated according to the methods of the disclosure. The 90 items in the questionnaire are scored on a 5-point Likert scale, indicating the rate of occurrence of the symptom during the time reference. In some embodiments, after treating according to the methods of the disclosure, a subject's SCL-90 score decreases by about 5% to about 100%, for example, by about 5%, about 10%, about 15%, about 20%, about 25%, about 30%, about 35%, about 40%, about 45%, about 50%, about 55%, about 60%, about 65%, about 70%, about 75%, about 80%, about 85%, about 90%, about 95%, or about 100%.
The Neuroticism Extraversion Openness-Five Factor Inventory (NEO-FFI) and Symptom Checklist-90 Item (SCL-90) were administered. Details of the MMRM applied to the change from baseline scores for the NEO-FFI and SCL-90 are provided below in Table 2Q.

[4] = Day 7, psilocybin 10 mg - placebo
[5] = Day 7, psilocybin 25 mg - 10 mg
[6] = Day 7, psilocybin 25 mg - placebo
[7] = Day 84, psilocybin 10 mg - placebo
[8] = Day 84, psilocybin 25 mg - 10 mg
[9] = Day 84, psilocybin 25 mg - placebo

CN(C)CCc1c[nH]c2cccc(OP(=O)(O)O)c12 [Psilocybin, psilocybin]
SSR compliance social rules change from baseline (LS mean) (healthy subjects [1]; Day 7, psilocybin 10 mg): −0.1
SSR fullfilling expectations change from baseline (LS mean) (healthy subjects [1]; Day 7, psilocybin 10 mg): −0.1
SSR global change from baseline (LS mean) (healthy subjects [1]; Day 7, psilocybin 10 mg): −2.0
SSR compliance social rules change from baseline, LS mean difference (healthy subjects [1]; [4]): 0.0
SSR fullfilling expectations change from baseline, LS mean difference (healthy subjects [1]; [4]): 0.1
SSR global change from baseline, LS mean difference (healthy subjects [1]; [4]): 1.2
SSR compliance social rules change from baseline (LS mean) (healthy subjects [1]; Day 7, psilocybin 25 mg): 0.0
SSR fullfilling expectations change from baseline (LS mean) (healthy subjects [1]; Day 7, psilocybin 25 mg): −0.0
SSR global change from baseline (LS mean) (healthy subjects [1]; Day 7, psilocybin 25 mg): −0.3
SSR compliance social rules change from baseline, LS mean difference (healthy subjects [1]; [5]): 0.1
SSR fullfilling expectations change from baseline, LS mean difference (healthy subjects [1]; [5]): 0.1
SSR global change from baseline, LS mean difference (healthy subjects [1]; [5]): 1.6
SSR compliance social rules change from baseline, LS mean difference (healthy subjects [1]; [6]): 0.1
SSR fullfilling expectations change from baseline, LS mean difference (healthy subjects [1]; [6]): 0.2
SSR global change from baseline, LS mean difference (healthy subjects [1]; [6]): 2.8
SSR compliance social rules change from baseline (LS mean) (healthy subjects [1]; Day 84, psilocybin 10 mg): −0.1
SSR fullfilling expectations change from baseline (LS mean) (healthy subjects [1]; Day 84, psilocybin 10 mg): −0.2
SSR global change from baseline (LS mean) (healthy subjects [1]; Day 84, psilocybin 10 mg): −1.8
SSR compliance social rules change from baseline, LS mean difference (healthy subjects [1]; [7]): −0.0
SSR fullfilling expectations change from baseline, LS mean difference (healthy subjects [1]; [7]): −0.1
SSR global change from baseline, LS mean difference (healthy subjects [1]; [7]): 0.3
SSR compliance social rules change from baseline (LS mean) (healthy subjects [1]; Day 84, psilocybin 25 mg): 0.0
SSR fullfilling expectations change from baseline (LS mean) (healthy subjects [1]; Day 84, psilocybin 25 mg): −0.0
SSR global change from baseline (LS mean) (healthy subjects [1]; Day 84, psilocybin 25 mg): 0.1
SSR compliance social rules change from baseline, LS mean difference (healthy subjects [1]; [8]): 0.1
SSR fullfilling expectations change from baseline, LS mean difference (healthy subjects [1]; [8]): 0.2
SSR global change from baseline, LS mean difference (healthy subjects [1]; [8]): 1.8
SSR compliance social rules change from baseline, LS mean difference (healthy subjects [1]; [9]): 0.1
SSR fullfilling expectations change from baseline, LS mean difference (healthy subjects [1]; [9]): 0.0
SSR global change from baseline, LS mean difference (healthy subjects [1]; [9]): 2.2
solubility [2]: ~15 mg/mL (≈ 52.8 mM)
SCL-90-somatisation change from baseline, LS mean (healthy subjects [3]; Day 7, psilocybin 10 mg): 0.1
SCL-90 anger hostility change from baseline, LS mean (healthy subjects [3]; Day 7, psilocybin 10 mg): −0.0
SCL-90 anxiety change from baseline, LS mean (healthy subjects [3]; Day 7, psilocybin 10 mg): −0.0
SCL-90 depression change from baseline, LS mean (healthy subjects [3]; Day 7, psilocybin 10 mg): 0.0
SCL-90 interpersonal sensitivity change from baseline, LS mean (healthy subjects [3]; Day 7, psilocybin 10 mg): −0.0
SCL-90 obsessive compulsive change from baseline, LS mean (healthy subjects [3]; Day 7, psilocybin 10 mg): −0.1
SCL-90 paranoid ideation change from baseline, LS mean (healthy subjects [3]; Day 7, psilocybin 10 mg): −0.0
SCL-90 phobic anxiety change from baseline, LS mean (healthy subjects [3]; Day 7, psilocybin 10 mg): −0.0
SCL-90 psychoticism change from baseline, LS mean (healthy subjects [3]; Day 7, psilocybin 10 mg): 0.0
SCL-90-somatisation change from baseline, LS mean difference (healthy subjects [3]; [4]): 0.1
SCL-90 anger hostility change from baseline, LS mean difference (healthy subjects [3]; [4]): −0.0
SCL-90 anxiety change from baseline, LS mean difference (healthy subjects [3]; [4]): −0.0
SCL-90 depression change from baseline, LS mean difference (healthy subjects [3]; [4]): 0.0
SCL-90 interpersonal sensitivity change from baseline, LS mean difference (healthy subjects [3]; [4]): −0.0
SCL-90 obsessive compulsive change from baseline, LS mean difference (healthy subjects [3]; [4]): 0.1
SCL-90 paranoid ideation change from baseline, LS mean difference (healthy subjects [3]; [4]): 0.0
SCL-90 phobic anxiety change from baseline, LS mean difference (healthy subjects [3]; [4]): −0.0
SCL-90 psychoticism change from baseline, LS mean difference (healthy subjects [3]; [4]): 0.0
SCL-90-somatisation change from baseline, LS mean (healthy subjects [3]; Day 7, psilocybin 25 mg): 0.1
SCL-90 anger hostility change from baseline, LS mean (healthy subjects [3]; Day 7, psilocybin 25 mg): −0.0
SCL-90 anxiety change from baseline, LS mean (healthy subjects [3]; Day 7, psilocybin 25 mg): −0.0
SCL-90 depression change from baseline, LS mean (healthy subjects [3]; Day 7, psilocybin 25 mg): 0.0
SCL-90 interpersonal sensitivity change from baseline, LS mean (healthy subjects [3]; Day 7, psilocybin 25 mg): 0.0
SCL-90 obsessive compulsive change from baseline, LS mean (healthy subjects [3]; Day 7, psilocybin 25 mg): −0.1
SCL-90 paranoid ideation change from baseline, LS mean (healthy subjects [3]; Day 7, psilocybin 25 mg): 0.1
SCL-90 phobic anxiety change from baseline, LS mean (healthy subjects [3]; Day 7, psilocybin 25 mg): 0.0
SCL-90 psychoticism change from baseline, LS mean (healthy subjects [3]; Day 7, psilocybin 25 mg): 0.0
SCL-90-somatisation change from baseline, LS mean difference (healthy subjects [3]; [5]): −0.0
SCL-90 anger hostility change from baseline, LS mean difference (healthy subjects [3]; [5]): 0.0
SCL-90 anxiety change from baseline, LS mean difference (healthy subjects [3]; [5]): 0.0
SCL-90 depression change from baseline, LS mean difference (healthy subjects [3]; [5]): −0.0
SCL-90 interpersonal sensitivity change from baseline, LS mean difference (healthy subjects [3]; [5]): 0.1
SCL-90 obsessive compulsive change from baseline, LS mean difference (healthy subjects [3]; [5]): −0.0
SCL-90 paranoid ideation change from baseline, LS mean difference (healthy subjects [3]; [5]): 0.1
SCL-90 phobic anxiety change from baseline, LS mean difference (healthy subjects [3]; [5]): 0.0
SCL-90 psychoticism change from baseline, LS mean difference (healthy subjects [3]; [5]): 0.0
SCL-90-somatisation change from baseline, LS mean difference (healthy subjects [3]; [6]): 0.1
SCL-90 anger hostility change from baseline, LS mean difference (healthy subjects [3]; [6]): −0.0
SCL-90 anxiety change from baseline, LS mean difference (healthy subjects [3]; [6]): 0.0
SCL-90 depression change from baseline, LS mean difference (healthy subjects [3]; [6]): 0.0
SCL-90 interpersonal sensitivity change from baseline, LS mean difference (healthy subjects [3]; [6]): 0.0
SCL-90 obsessive compulsive change from baseline, LS mean difference (healthy subjects [3]; [6]): 0.1
SCL-90 paranoid ideation change from baseline, LS mean difference (healthy subjects [3]; [6]): 0.1
SCL-90 phobic anxiety change from baseline, LS mean difference (healthy subjects [3]; [6]): 0.0
SCL-90 psychoticism change from baseline, LS mean difference (healthy subjects [3]; [6]): 0.0
SCL-90-somatisation change from baseline, LS mean (healthy subjects [3]; Day 84, psilocybin 10 mg): 0.0
SCL-90 anger hostility change from baseline, LS mean (healthy subjects [3]; Day 84, psilocybin 10 mg): 0.0
SCL-90 anxiety change from baseline, LS mean (healthy subjects [3]; Day 84, psilocybin 10 mg): −0.0
SCL-90 depression change from baseline, LS mean (healthy subjects [3]; Day 84, psilocybin 10 mg): 0.1
SCL-90 interpersonal sensitivity change from baseline, LS mean (healthy subjects [3]; Day 84, psilocybin 10 mg): 0.0
SCL-90 obsessive compulsive change from baseline, LS mean (healthy subjects [3]; Day 84, psilocybin 10 mg): −0.0
SCL-90 paranoid ideation change from baseline, LS mean (healthy subjects [3]; Day 84, psilocybin 10 mg): 0.1
SCL-90 phobic anxiety change from baseline, LS mean (healthy subjects [3]; Day 84, psilocybin 10 mg): 0.0
SCL-90 psychoticism change from baseline, LS mean (healthy subjects [3]; Day 84, psilocybin 10 mg): −0.0
SCL-90-somatisation change from baseline, LS mean difference (healthy subjects [3]; [7]): 0.0
SCL-90 anger hostility change from baseline, LS mean difference (healthy subjects [3]; [7]): −0.0
SCL-90 anxiety change from baseline, LS mean difference (healthy subjects [3]; [7]): −0.1
SCL-90 depression change from baseline, LS mean difference (healthy subjects [3]; [7]): 0.0
SCL-90 interpersonal sensitivity change from baseline, LS mean difference (healthy subjects [3]; [7]): −0.1
SCL-90 obsessive compulsive change from baseline, LS mean difference (healthy subjects [3]; [7]): 0.1
SCL-90 paranoid ideation change from baseline, LS mean difference (healthy subjects [3]; [7]): 0.1
SCL-90 phobic anxiety change from baseline, LS mean difference (healthy subjects [3]; [7]): −0.0
SCL-90 psychoticism change from baseline, LS mean difference (healthy subjects [3]; [7]): −0.0
SCL-90-somatisation change from baseline, LS mean (healthy subjects [3]; Day 84, psilocybin 25 mg): 0.0
SCL-90 anger hostility change from baseline, LS mean (healthy subjects [3]; Day 84, psilocybin 25 mg): 0.0
SCL-90 anxiety change from baseline, LS mean (healthy subjects [3]; Day 84, psilocybin 25 mg): −0.0
SCL-90 depression change from baseline, LS mean (healthy subjects [3]; Day 84, psilocybin 25 mg): 0.1
SCL-90 interpersonal sensitivity change from baseline, LS mean (healthy subjects [3]; Day 84, psilocybin 25 mg): 0.0
SCL-90 obsessive compulsive change from baseline, LS mean (healthy subjects [3]; Day 84, psilocybin 25 mg): −0.1
SCL-90 paranoid ideation change from baseline, LS mean (healthy subjects [3]; Day 84, psilocybin 25 mg): 0.1
SCL-90 phobic anxiety change from baseline, LS mean (healthy subjects [3]; Day 84, psilocybin 25 mg): 0.0
SCL-90 psychoticism change from baseline, LS mean (healthy subjects [3]; Day 84, psilocybin 25 mg): 0.0
SCL-90-somatisation change from baseline, LS mean difference (healthy subjects [3]; [8]): 0.0
SCL-90 anger hostility change from baseline, LS mean difference (healthy subjects [3]; [8]): −0.0
SCL-90 anxiety change from baseline, LS mean difference (healthy subjects [3]; [8]): 0.0
SCL-90 depression change from baseline, LS mean difference (healthy subjects [3]; [8]): 0.0
SCL-90 interpersonal sensitivity change from baseline, LS mean difference (healthy subjects [3]; [8]): 0.0
SCL-90 obsessive compulsive change from baseline, LS mean difference (healthy subjects [3]; [8]): −0.1
SCL-90 paranoid ideation change from baseline, LS mean difference (healthy subjects [3]; [8]): 0.0
SCL-90 phobic anxiety change from baseline, LS mean difference (healthy subjects [3]; [8]): 0.0
SCL-90 psychoticism change from baseline, LS mean difference (healthy subjects [3]; [8]): 0.0
SCL-90-somatisation change from baseline, LS mean difference (healthy subjects [3]; [9]): 0.0
SCL-90 anger hostility change from baseline, LS mean difference (healthy subjects [3]; [9]): −0.0
SCL-90 anxiety change from baseline, LS mean difference (healthy subjects [3]; [9]): −0.0
SCL-90 depression change from baseline, LS mean difference (healthy subjects [3]; [9]): 0.0
SCL-90 interpersonal sensitivity change from baseline, LS mean difference (healthy subjects [3]; [9]): −0.0
SCL-90 obsessive compulsive change from baseline, LS mean difference (healthy subjects [3]; [9]): 0.0
SCL-90 paranoid ideation change from baseline, LS mean difference (healthy subjects [3]; [9]): 0.1
SCL-90 phobic anxiety change from baseline, LS mean difference (healthy subjects [3]; [9]): 0.0
SCL-90 psychoticism change from baseline, LS mean difference (healthy subjects [3]; [9]): −0.0
